Measured values taken from patent US8846947B2, “Benzimidazoles and related analogs as sirtuin modulators” (GlaxoSmithKline LLC, priority 2008, dated 2014).
Where two headings read alike, the source gives them in different places.

Molecular target: T1, SIRT1 (Homo sapiens, UniProt Q96EB6)
T1 sequence (Q96EB6 1-747): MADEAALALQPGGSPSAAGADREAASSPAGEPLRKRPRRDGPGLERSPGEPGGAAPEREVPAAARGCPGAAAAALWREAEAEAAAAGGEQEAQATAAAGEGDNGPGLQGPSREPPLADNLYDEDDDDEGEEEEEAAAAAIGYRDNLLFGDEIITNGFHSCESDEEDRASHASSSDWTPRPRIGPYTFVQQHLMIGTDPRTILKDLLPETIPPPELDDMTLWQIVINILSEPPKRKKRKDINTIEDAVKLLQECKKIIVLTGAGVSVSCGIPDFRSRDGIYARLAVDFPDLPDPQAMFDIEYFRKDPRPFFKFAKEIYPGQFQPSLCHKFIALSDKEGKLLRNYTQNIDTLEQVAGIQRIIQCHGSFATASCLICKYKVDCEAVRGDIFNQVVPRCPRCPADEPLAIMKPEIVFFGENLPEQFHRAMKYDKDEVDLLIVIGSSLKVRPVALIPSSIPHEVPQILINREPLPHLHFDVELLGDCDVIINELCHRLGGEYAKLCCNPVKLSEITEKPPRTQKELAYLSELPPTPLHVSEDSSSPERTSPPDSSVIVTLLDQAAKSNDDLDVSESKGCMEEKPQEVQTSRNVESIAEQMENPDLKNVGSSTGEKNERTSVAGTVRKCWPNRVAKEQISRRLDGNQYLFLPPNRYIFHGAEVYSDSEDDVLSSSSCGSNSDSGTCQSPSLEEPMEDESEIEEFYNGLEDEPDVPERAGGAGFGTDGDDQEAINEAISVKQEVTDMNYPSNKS
Assay: Mass spectrometry based SIRT1 deacetylase activation assay (acetylated p53-derived peptide substrate)
Assay type: biochemical

[1] = 0.5 μM peptide substrate, 120 μM βNAD+, 10 nM SIRT1, 25 minutes at 25° C.
[2] = 0.5 μM peptide substrate, 120 μM βNAD+, 10 nM SIRT1, 25 min at 25° C.
[3] = 0.5 μM peptide substrate, 120 μM βNAD+, 10 nM SIRT1, 25 min at 25° C., read-out: EC1.5

EC1.5 [1]	Fold Act. (percent maximum fold activation) [1]	Fold Act. (percent maximum fold activation) [2]	EC1.5 [3] [nM]	SMILES	other results
A (EC1.5<1.0 uM)	A (Fold activation >200%)	–	–	O=C(Nc1cccnn1)c1cncc2[nH]c(-c3ccccc3C(F)(F)F)nc12 [Compound 638]	–
A (EC1.5<1.0 uM)	A (Fold activation >200%)	–	–	Cc1cc(-c2nc3c(C(=O)Nc4cccc(CN5CCOCC5)n4)cccc3[nH]2)ccn1 [Compound 816, 2-(2-methylpyridin-4-yl)-N-(6-(morpholinomethyl)pyridin-2-yl)-1H-benzo[d]imidazole-4-carboxamide]	–
A (EC1.5<1.0 uM)	A (Fold activation >200%)	–	–	O=C(Nc1ccccn1)c1cncc2[nH]c(-c3ccc(Cl)cc3C(F)(F)F)nc12 [Compound 649]	–
A (EC1.5<1.0 uM)	A (Fold activation >200%)	–	–	O=C(Nc1ccccn1)c1cncc2[nH]c(-c3ccccc3C(F)(F)F)nc12 [Compound 636]	–
B (EC1.5 1-25 uM)	A (Fold activation >200%)	–	–	O=C(Nc1ccccn1)c1cncc2[nH]c(-c3cc(F)ccc3C(F)(F)F)nc12 [Compound 654]	–
–	–	A (Fold activation >200%)	< 1000	O=C(Nc1cccc(OC2CCNC2)c1)c1cccc2[nH]c(-c3cc(F)ccc3C(F)(F)F)nc12 (centres unmarked) [Compound 524]	–
–	–	B (Fold Activation <200%)	> 25000	O=C(NC1CCOC1=O)c1cccc2[nH]c(-c3ccnn3-c3ccccc3)nc12 (centres unmarked) [Compound 443]	–
–	–	A (Fold activation >200%)	1000 to 25000	O=C(Nc1ccccn1)c1cccc2[nH]c(-c3ccccc3OC3CCNCC3)nc12 [Compound 538]	–
–	–	A (Fold activation >200%)	< 1000	Cc1cc(NC(=O)c2cccc3[nH]c(-c4ccccc4C(F)(F)F)nc23)no1 [Compound 481]	–
–	–	B (Fold Activation <200%)	> 25000	O=C(NCc1ccccn1)c1cccc2[nH]c(-c3ccnn3-c3ccccc3)nc12 [Compound 468]	–
–	–	A (Fold activation >200%)	1000 to 25000	O=C(Nc1ccccn1)c1cccc2[nH]c(-c3ccc(Cl)cc3C(F)F)nc12 [Compound 564]	–
–	–	A (Fold activation >200%)	< 1000	O=C(Nc1ccccn1)c1cccc2[nH]c(-c3ccc(N4CCOCC4)cc3C(F)(F)F)nc12 [Compound 415]	–
A (EC1.5<1.0 uM)	A (Fold activation >200%)	–	–	O=C(Nc1nccs1)c1cccc2[nH]c(-c3ccc(N4CC[C@H](F)C4)cc3C(F)F)nc12 [Compound 731]	–
–	–	A (Fold activation >200%)	< 1000	O=C(Nc1cccnc1)c1cccc2[nH]c(-c3ccc(N4CCOCC4)cc3C(F)F)nc12 [Compound 554]	–
–	–	A (Fold activation >200%)	< 1000	O=C(Nc1ccc(CN2CCCC2)cn1)c1cccc2[nH]c(-c3ccc(Cl)cc3C(F)(F)F)nc12 [Compound 542]	–

Further lines, the compound ahead of its results:

SMILES	EC1.5 [1]	Fold Act. (percent maximum fold activation) [1]	Fold Act. (percent maximum fold activation) [2]	EC1.5 [3] [nM]	other results
O=C(Nc1nccs1)c1cccc2[nH]c(-c3cc(N4CC[C@H](F)C4)ccc3C(F)(F)F)nc12 [Compound 665]	A (EC1.5<1.0 uM)	A (Fold activation >200%)	–	–	–
Cc1cnc(NC(=O)c2cncc3nc(-c4ccc(OC[C@@H](O)CO)cc4C(F)F)[nH]c23)s1 [Compound 772]	A (EC1.5<1.0 uM)	A (Fold activation >200%)	–	–	–
Cc1nc(NC(=O)c2cccc3[nH]c(-c4ccc(Cl)cc4C(F)(F)F)nc23)sc1C [Compound 393]	–	–	–	–	EC1.5: A (EC1.5<1.0 uM); Fold Act. (percent maximum fold activation): A (Fold activation >200%)
O=C(Nc1cccc(CN2CCOCC2)n1)c1cccc2[nH]c(-c3cc(F)cc(F)c3)nc12 [Compound 852]	A (EC1.5<1.0 uM)	A (Fold activation >200%)	–	–	–
O=C(Nc1nccs1)c1cccc2[nH]c(-c3ccccn3)nc12 [Compound 215]	–	–	–	–	EC1.5: B (EC1.5 1-25 uM); Fold Act. (percent maximum fold activation): A (Fold activation >200%)
O=C(Nc1cccc(OC[C@@H](O)CO)c1)c1cccc2[nH]c(-c3ccc(F)cc3C(F)F)nc12 [Compound 718]	A (EC1.5<1.0 uM)	A (Fold activation >200%)	–	–	–
O=C(Nc1nccs1)c1cccc2[nH]c(-c3cc(N4CCOCC4)ccc3C(F)(F)F)nc12 [Compound 448]	–	–	A (Fold activation >200%)	< 1000	–
O=C(Nc1cccnc1)c1cncc2nc(-c3ccc(N4CCCC4)cc3C(F)F)[nH]c12 [Compound 812]	A (EC1.5<1.0 uM)	A (Fold activation >200%)	–	–	–
O=C(Nc1cccnn1)c1cncc2[nH]c(-c3ccc(Cl)cc3C(F)(F)F)nc12 [Compound 651]	A (EC1.5<1.0 uM)	A (Fold activation >200%)	–	–	–
O=C(Nc1nccs1)c1cccc2[nH]c(-c3ccccc3C(F)(F)F)nc12 [Compound 208, N-(thiazol-2-yl)-2-(2-(trifluoromethyl)phenyl)-1H-benzo[d]imidazole-4-carboxamide]	–	–	–	–	EC1.5: A (EC1.5<1.0 uM); Fold Act. (percent maximum fold activation): A (Fold activation >200%)
O=C(Nc1cccc(OC[C@@H](O)CO)c1)c1cncc2[nH]c(-c3ccc(Cl)cc3C(F)(F)F)nc12 [Compound 738]	A (EC1.5<1.0 uM)	A (Fold activation >200%)	–	–	–
O=C(Nc1nccs1)c1cccc2[nH]c(-c3ccncc3)nc12 [Compound 237]	–	–	–	–	EC1.5: B (EC1.5 1-25 uM); Fold Act. (percent maximum fold activation): B (Fold Activation <200%)
Cc1cnc(NC(=O)c2cccc3[nH]c(-c4ccc5c(c4)NC(=O)CO5)nc23)s1 [Compound 534]	–	–	A (Fold activation >200%)	< 1000	–
O=C(Nc1cccc2[nH]c(-c3cccc(N4CCOCC4)c3)nc12)c1cscn1 [Compound 391]	–	–	–	–	EC1.5: B (EC1.5 1-25 uM); Fold Act. (percent maximum fold activation): A (Fold activation >200%)
FC(F)(F)c1cccc(-c2nc3c(NCc4cccnc4)cccc3[nH]2)c1 [Compound 617]	B (EC1.5 1-25 uM)	B (Fold Activation <200%)	–	–	–
O=C(Nc1nccs1)c1cccc2[nH]c(-c3ccc(N4CCOCC4)cc3C(F)(F)F)nc12 [Compound 414]	–	–	A (Fold activation >200%)	< 1000	–
O=C(Nc1ccc[n+]([O-])c1)c1cccc2[nH]c(-c3ccccc3C(F)(F)F)nc12 [Compound 336]	–	–	–	–	EC1.5: A (EC1.5<1.0 uM); Fold Act. (percent maximum fold activation): A (Fold activation >200%)
O=C(NC1CCCC1)c1cccc2[nH]c(-c3cccc(C(F)(F)F)c3)nc12 [Compound 276]	–	–	–	–	EC1.5: C (EC1.5 >25 uM); Fold Act. (percent maximum fold activation): B (Fold Activation <200%)
Cc1cnc(NC(=O)c2cccc3[nH]c(-c4ccc(N5CCOCC5)cc4C(F)F)nc23)s1 [Compound 552]	–	–	A (Fold activation >200%)	< 1000	–
Cc1cnc(NC(=O)c2cccc3[nH]c(-c4ccc(OC[C@@H](O)CO)cc4C(F)F)nc23)s1 [Compound 595]	–	–	A (Fold activation >200%)	< 1000	–
O=C(Nc1cccnc1)c1cccc2[nH]c(-c3ccc(Cl)cc3C(F)(F)F)nc12 [Compound 312]	–	–	–	–	EC1.5: A (EC1.5<1.0 uM); Fold Act. (percent maximum fold activation): A (Fold activation >200%)
O=C(Nc1nccs1)c1cccc2[nH]c(-c3cccc(-c4nnn[nH]4)c3)nc12 [Compound 360]	–	–	–	–	EC1.5: A (EC1.5<1.0 uM); Fold Act. (percent maximum fold activation): A (Fold activation >200%)
O=C(NC1CCOC1=O)c1cccc2[nH]c(-c3ccc(F)cc3C(F)(F)F)nc12 (centres unmarked) [Compound 374]	–	–	–	–	EC1.5: C (EC1.5 >25 uM); Fold Act. (percent maximum fold activation): B (Fold Activation <200%)
O=C(Nc1ccc(OC[C@H](O)CO)cc1)c1cccc2[nH]c(-c3cccc(N4CCCC4)c3)nc12 [Compound 778]	A (EC1.5<1.0 uM)	A (Fold activation >200%)	–	–	–
O=C(Nc1cccc2[nH]c(-c3cc(F)ccc3C(F)(F)F)nc12)c1cscn1 [Compound 384]	–	–	–	–	EC1.5: B (EC1.5 1-25 uM); Fold Act. (percent maximum fold activation): A (Fold activation >200%)
O=C(Nc1cc[n+]([O-])cc1)c1cccc2[nH]c(-c3ccccc3C(F)(F)F)nc12 [Compound 337]	–	–	–	–	EC1.5: A (EC1.5<1.0 uM); Fold Act. (percent maximum fold activation): A (Fold activation >200%)
O=C(Nc1cccc(OC[C@H](O)CO)c1)c1cccc2[nH]c(-c3ccc(N4CC[C@H](F)C4)cc3C(F)(F)F)nc12 [Compound 779]	A (EC1.5<1.0 uM)	A (Fold activation >200%)	–	–	–
COc1cc(C(=O)Nc2nccs2)c2nc(-c3ccccc3C(F)(F)F)[nH]c2c1 [Compound 634]	A (EC1.5<1.0 uM)	A (Fold activation >200%)	–	–	–
